Read-outs that look alike come from different tables or passages of the source. Marks after values point to notes of the source that are not given here.
Assays:
[1] = biological target: T1, sigma-2 receptor (Rattus norvegicus, UniProt Q5U3Y7); assay: Sigma-2 receptor competitive binding, trace amines; parameters: from tissue; host or cells: liver membranes (rat inferred)
T1 sequence (Q5U3Y7 1-176): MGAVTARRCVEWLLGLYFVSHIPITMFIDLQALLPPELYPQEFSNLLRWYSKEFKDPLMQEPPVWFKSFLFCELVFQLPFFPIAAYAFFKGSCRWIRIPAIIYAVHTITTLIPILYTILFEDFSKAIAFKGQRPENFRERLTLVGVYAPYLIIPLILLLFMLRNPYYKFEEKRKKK
Method: (§1) Competitive binding assays were performed as previously described (18) with the exception of testing new ligands shown in Table 4.

[2] = biological target: T2, sigma-1 receptor (Cavia porcellus, UniProt Q60492); assay: Sigma-1 competitive binding, (+)-[3H]pentazocine, guinea pig liver membranes (Example 6); parameters: from tissue; host or cells: guinea pig liver membranes; conditions: for Kd: guinea pig liver membranes, n = 3, read-out: Sigma 1 KD values;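 for all read-outs here: compounds tested over serial concentrations, 45 min incubation at 30 °C with membrane preparations, read-out is displacement of bound radioligand from the receptor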
T2 sequence (Q60492 whole entry): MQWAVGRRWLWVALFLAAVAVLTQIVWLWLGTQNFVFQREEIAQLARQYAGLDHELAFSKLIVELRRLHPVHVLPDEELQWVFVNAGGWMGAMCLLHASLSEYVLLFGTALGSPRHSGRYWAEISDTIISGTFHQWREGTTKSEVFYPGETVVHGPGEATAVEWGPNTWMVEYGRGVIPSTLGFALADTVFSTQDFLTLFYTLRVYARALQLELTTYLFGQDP
Method: (§3) Minced frozen rat livers or guinea pig livers (65 g) were thawed in 100 mL homogenization buffer (10 mM phosphate buffer pH 7.4 containing 0.32M sucrose, 1 M MgSO4, 0.5 M EGTA, 1 mM phenylmethylsulphonyl fluoride (PMSF), 10 μg/mlleupeptin, 1 μg/ml pepstatin A, 10 μg/ml p-toluenesulfonyl-L-arginine methyl ester (TAME) and then homogenized on ice with a Brinkman polytron homogenizer (setting 6, 4 bursts of 10 second each) followed by a glass homogenizer (Teflon pestle by 6 slow passes at 3,000 rpm). The homogenized tissues were then centrifuged at 17,000 g for 10 minutes. The supernatants were re-centrifuged at 100,000 g for 1 hour. The microsomal pellets were resuspended in homogenization buffer, snap frozen with dry ice-ethanol, and stored at −80° C. at a final protein concentration of 20 mg/mL.
(§4) Assays for sigma-1 were performed using 10 nM (+)-[^3H]pentazocine in guinea pig liver homogenates (25 μg/well) incubated at 30° C. for 1 hour with several concentrations of competing ligands. After incubation, membranes were harvested on a 0.5% PEI-treated Whatman GF/B filters using a Brandel Cell Harvester. (+)-[^3H]pentazocine binding was determined by liquid scintillation counting. […] Serial concentrations of the compounds evaluated were added to the reactions for 45 minutes at 30° C. and the samples vacuum filtered through 0.5% polyethyleneimine (PEI) treated Whatman GF/B as described above to measure displacement of the radioligands from the sigma receptor subtypes.

[3] = biological target: T1, sigma-2 receptor; assay: Sigma-2 competitive binding, [3H]-DTG with (+)-pentazocine, rat liver membranes (Example 6); parameters: from tissue; host or cells: rat liver membranes; conditions: rat liver membranes, n = 3; read-out: Sigma2 KD values
Method: as §3, §4

[4] = biological target: T3, purified sigma-1 receptor (Cavia porcellus, UniProt Q60492); assay: Competitive displacement of [3H]-(+)-pentazocine at the pure sigma-1 receptor; assay type: binding, guinea pig; conditions: read-out: Ki Pure σ-1R
T3 construct: made in house; host or cells: E. coli BL21 DE3
T3 sequence (Q60492 whole entry): as above
Method: A guinea pig sigma-1 receptor was purified as previously described (Ramachandran et al., Protein Expr. Purif., 2007. 51(2): 283-92). The pMal P2X plasmid (New England Biolabs) encoding the guinea pig sigma-1 receptor on the C-terminus of the E. coli Maltose Binding Protein was used for purification. The sigma-1 receptor on its C-terminus carried a hexa-histadine epitope tag. Protein was expressed in the E. coli strain BL21 DE3 (Novagen) with 0.6 mM IPTG. The E. coli pellet was sonicated and centrifuged at 100,000 g for 1 hour to separate the particulate and soluble fractions. The particulate fraction was extracted with Triton X-100, centrifuged and the extract was loaded onto an amylose resin (New England Biolabs, E-802). After washing the resin with buffer containing 0.5% Triton X-100, the MBP-sigma-1 receptor fusion protein was eluted with buffer containing 10 mM maltose.
The MBP-sigma-1-receptor fusion protein was cleaved with Factor Xa protease (Novagen) at room temperature for 24-48 hours and the cleavage was monitored with SDS-polyacrylamide gel electrophoresis. The sigma-1 receptor from the Factor Xa cleavage was purified with a HIS-Select HC Nickel affinity gel (Sigma-Aldrich P6611) in a batch format. The resin was washed with buffer containing 0.5% Triton X-100 detergent and the beads were separated by a brief centrifugation at 4000 rpm in a microcentrifuge. After washing to remove MBP, the pure sigma-1 receptor was eluted in buffer containing 250 mM imidazole.
To remove the undigested MBP-sigma-1 receptor fusion protein that is carried over in the Ni^2+ purification, the eluate from the Ni^2+ purification was incubated with Anti-MBP antibody conjugated to agarose (Vector Laboratories, Burlingame, Calif.) at 4° C. for 18-24 hours. The beads were separated by centrifugation and the supernatant contained the pure sigma-1 receptor.
Competition ligand binding to the pure sigma-1 receptor was performed as previously described. […] After incubation at 30° C. for 60 minutes, the reaction was terminated by rapid filtration through glass fiber filters (Whatman GF/B), using a Brandel cell harvester (Brandel, Gaithersburg, Md.). The glass fiber filters were pre-soaked in 0.5% polyethyleneimine (PEI) for at least 1 hour at room temperature (˜23° C.). Filters were washed 4 times with 4 mL of ice-cold 50 mM Tris-C1, pH 8.0. Radioactivity was quantified by liquid scintillation counting using a Packard model 1600 CA scintillation counter.

[5] = biological target: T4, Kv 1.4 K+ channel (Rattus norvegicus, UniProt P15385); assay: Whole cell patch clamp of Kv 1.4 K+ channel co-expressed with sigma-1 receptor in HEK-293 cells; assay type: cell-based
T4 construct: expressed in transfected cells; host or cells: HEK-293, transient, pIRES KvS1R plus pEGFP
T4 sequence (Q9R0C9 whole entry partner): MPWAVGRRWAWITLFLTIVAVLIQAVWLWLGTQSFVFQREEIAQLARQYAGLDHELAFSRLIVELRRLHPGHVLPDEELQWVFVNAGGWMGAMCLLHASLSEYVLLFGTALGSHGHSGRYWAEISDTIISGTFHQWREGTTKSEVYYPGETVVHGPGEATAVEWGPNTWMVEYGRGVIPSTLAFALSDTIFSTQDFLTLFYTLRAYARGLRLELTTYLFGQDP
T4 sequence (P15385 whole entry): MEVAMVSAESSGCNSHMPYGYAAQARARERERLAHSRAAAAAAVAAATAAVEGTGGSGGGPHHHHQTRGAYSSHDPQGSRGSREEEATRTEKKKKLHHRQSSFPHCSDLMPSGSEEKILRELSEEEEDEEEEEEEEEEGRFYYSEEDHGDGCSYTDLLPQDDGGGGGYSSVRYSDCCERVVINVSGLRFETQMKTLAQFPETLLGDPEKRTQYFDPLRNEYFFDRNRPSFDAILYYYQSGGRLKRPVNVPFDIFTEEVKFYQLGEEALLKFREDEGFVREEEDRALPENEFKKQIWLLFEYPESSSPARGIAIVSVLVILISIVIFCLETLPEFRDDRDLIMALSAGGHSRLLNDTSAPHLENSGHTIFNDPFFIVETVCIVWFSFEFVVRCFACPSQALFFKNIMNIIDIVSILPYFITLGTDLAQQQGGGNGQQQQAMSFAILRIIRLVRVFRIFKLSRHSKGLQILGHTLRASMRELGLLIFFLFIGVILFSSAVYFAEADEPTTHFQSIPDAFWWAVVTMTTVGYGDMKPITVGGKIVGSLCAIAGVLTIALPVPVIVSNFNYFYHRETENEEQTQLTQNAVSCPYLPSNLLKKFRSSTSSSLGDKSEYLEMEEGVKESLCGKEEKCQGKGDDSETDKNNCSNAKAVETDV
Method: After transfection (36-48 hours), whole cell K^+ currents were recorded from GFP positive HEK cells under voltage clamp using standard patch clamp techniques, using patch pipettes filled with (in mM) 120 KCl, 10 NaCl, 10 EGTA, 2 MgCl2, 2-4 MgATP, 0.3 NaGTP, 10 HEPES, pH 7.3.
The external solution was composed of (in mM) 130 NaCl, 4 KCl, 2 CaCl2, 1 MgCl2, 10 HEPES, pH 7.4 at room temperature (22-24° C.). Patch pipettes with resistances from 1-3 MΩ were fabricated from borosilicate glass (Garner Glass Co., CA). K^+ channels were activated by voltage step from −120 mV to 20 mV for 250 ms. Axopatch 200B, patch clamp amplifier interfaced to a PC running PCLAMP 7 (Axon Instruments) was used for data acquisition. Drugs were applied by a gravity feed system at a flow rate of 1-3 mL/minute. Series resistance compensation was used for cells with series resistance values higher than 10 MΩ. A 80-90% series resistance compensation was achieved on such cells.
K^+ currents were recorded using whole cell patch clamp technique.

[6] = biological target: T2, sigma-1 receptor; assay: Competition assay against (+)-[3H]-pentazocine, trace amines; assay type: binding; parameters: from tissue
Method: as §1

[7] = biological target: T5, σ-1 Sites (Cavia porcellus, UniProt Q60492); assay: σ-1 sites radioligand binding, guinea pig liver membranes (Table 2)
T5 construct: from tissue
T5 sequence (Q60492 whole entry): as the sequence (Q60492 whole entry) above

[8] = biological target: T6, σ-2 Sites (Rattus norvegicus, UniProt Q5U3Y7); assay: σ-2 sites radioligand binding, rat liver membranes (Table 2)
T6 construct: from tissue
T6 sequence (Q5U3Y7 1-176): T1 sequence (Q5U3Y7 1-176)
Method: as §4

[9] = tested on: Du145; assay: Cytotoxicity assay Du145; assay type: cell-based; conditions: Homo sapiens, DU-145, HU Prostate, read-out: IC50 (SE) growth inhibition
Method: (§2) Multi-plex cytotoxicity assays were performed by the Keck-UWCCC Small Molecule Screening Facility (Madison, Wis.). Specific methodology can be found online at http://hts.wisc.edu/Resources.htm#mpa.

[10] = biological target: T2, sigma-1 receptor; parameters: from tissue; host or cells: guinea pig liver membranes; conditions: from Fontanilla et al. Biochemistry 2008; cited from earlier work
[11] = tested on: SF268; assay: Cytotoxicity assay SF268; assay type: cell-based; conditions: Homo sapiens, SF-268, HU CNS, read-out: IC50 (SE) growth inhibition
Method: as §2

[12] = tested on: NCI-H460; assay: Cytotoxicity assay NCI-H460; assay type: cell-based; conditions: Homo sapiens, HU lung, read-out: IC50 (SE) growth inhibition
Method: as §2

[13] = tested on: MCP10A; assay: Cytotoxicity assay MCP10A; assay type: cell-based; conditions: Homo sapiens, HU Breast, read-out: IC50 (SE) growth inhibition
Method: as §2

[14] = tested on: HCT-45; assay: Cytotoxicity assay HCT-45; assay type: cell-based; conditions: Homo sapiens, HU Colorectal, read-out: IC50 (SE) growth inhibition
Method: as §2

[15] = tested on: A549; assay: Cytotoxicity assay A549; assay type: cell-based; conditions: Homo sapiens, HU lung, read-out: IC50 (SE) growth inhibition
Method: as §2

[16] = tested on: HT-29; assay: Cytotoxicity assay HT-29; assay type: cell-based; conditions: Homo sapiens, HU Colorectal, read-out: IC50 (SE) growth inhibition
Method: as §2

[17] = tested on: SKOV-3; assay: Cytotoxicity assay SKOV-3; assay type: cell-based; conditions: Homo sapiens, SK-OV-3, HU Ovarian, read-out: IC50 (SE) growth inhibition
Method: as §2

[18] = tested on: MB-MDA-231; assay: Cytotoxicity assay MB-MDA-231; assay type: cell-based; conditions: Homo sapiens, HU Breast, read-out: IC50 (SE) growth inhibition
Method: as §2

[19] = tested on: MCF7; assay: Cytotoxicity assay MCF7; assay type: cell-based; conditions: Homo sapiens, HU Breast, read-out: IC50 (SE) growth inhibition
Method: as §2

[20] = tested on: HI299; assay: Cytotoxicity assay HI299; assay type: cell-based; conditions: Homo sapiens, HU Lung, read-out: IC50 (SE) growth inhibition
Method: as §2

[21] = biological target: T1, sigma-2 receptor; parameters: from tissue; host or cells: rat liver membranes; conditions: from Fontanilla et al. Biochemistry 2008; cited from earlier work
[22] = tested on: WT and sigma-1 receptor knockout mice; assay: Open-field hypermobility assay in WT and sigma-1 receptor KO mice; assay type: in vivo, mouse; conditions: WT and KO mice, 3 mg/kg i.p.
Method: All mice were maintained on a normal light/dark cycle and handled in accordance with Animal Care and Use Guidelines of the University of Wisconsin, Madison. […] Mice were first acclimatized to the experimental room for one hour. WT and KO mice were injected with the monoamine oxidase inhibitor, pargyline (75 mg/kg, i.p.) two hours prior to DMT or vehicle injection(28). […] Each condition represents 8 to 14 mice (n=8-14). […] A computer program was used to quantitate movement and after each experiment, 70% ethanol was used to remove odors from the open-field.

[23] = tested on: tumor cell lines; assay: Cytotoxicity assays, various tumor cell lines (statements in words); assay type: cell-based, human
Method: Because sigma-1 receptors are overexpressed in numerous tumor cell lines, which include breast cancer, lung carcinoma, renal carcinoma, colon carcinoma, sarcoma, brain tumors, melanoma, glioblastoma, neuroblastoma, and prostate cancer, the ability of the compounds to inhibit the growth of various tumor cell lines were tested.
as §2

[24] = biological target: sigma-1 receptor (Homo sapiens, UniProt Q99720); conditions: literature value; cited from earlier work
Sequence of sigma-1 receptor (Homo sapiens, UniProt Q99720) (Q99720 whole entry, species assumed): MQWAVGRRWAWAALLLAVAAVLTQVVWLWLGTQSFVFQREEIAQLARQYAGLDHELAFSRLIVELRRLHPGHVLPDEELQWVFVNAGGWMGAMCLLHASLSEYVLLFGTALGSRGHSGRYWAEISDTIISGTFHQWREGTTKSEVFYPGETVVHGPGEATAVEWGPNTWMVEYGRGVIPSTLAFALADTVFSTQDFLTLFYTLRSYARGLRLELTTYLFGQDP

With `CNCCc1ccc(O)cc1` [N-methyltyramine, 4-(2-(methylamino)ethyl)phenol] the Kd ([1]; read-out: Sigma-2R KD) was 6.61 µM.
In the case of `CCCNCCc1ccc([N+](=O)[O-])cc1` [Compound 7, N-propyl-N-3-(4-nitophenyl)-ethylamine], the melting point is reported as 142 to 144 °C, the “Ratio (σ2/σ1)” value [2] is reported as 23.8 and the Kd [3] is reported as 53.6 µM.
For `CCCCN(CCCC)C(=O)CCc1ccc(F)cc1` [Compound 5, N,N-Dibutyl-3-(4-fluorophenyl)propionamide], the melting point was 162 to 164 °C, the “Ratio (σ2/σ1)” value [2] was 3.94 and the Kd [2] was 32.1 µM. The Kd [3] was 126 µM.
For `CCCCN` [Butylamine, reference compound], the Ki ([4]; [3H]-(+)-pentazocine 10 nM) was 477 ± 67.5 µM and the “average inhibition of Kv 1.4 K+ channel” value ([5]; concentrations up to 300 μM, HEK-293) was 21%.
With `NCCc1ccccc1` [Phenethylamine] the Kd [1] was 7.31 µM and the Kd [6] was 97.4 µM.
In the case of `CCCCNCCCc1ccccc1` [Compound 1a, N-(3-Phenylpropyl)butan-1-amine], the Ki ([4]; [3H]-(+)-pentazocine) is reported as 0.205 ± 0.0185 µM, the Ki ([7]; guinea pig liver membranes) is reported as 0.073 µM and the “σ-1 selectivity σ-2 Ki/σ-1 Ki” value ([7]; σ-2 rat liver / σ-1 guinea pig liver membranes) is reported as 2. The Ki [8] was 0.153 µM and the EC50 ([5]; HEK-293 co-expressing sigma-1 receptor, read-out: EC50 for inhibition of the Kv 1.4 K+ channel) was 50 µM.
In the case of `CCCN(CCCc1ccc(F)cc1)CCc1ccc(N)cc1` [Compound 20, N-propyl-N-(4-aminophenyl-ethyl)-3-(4-fluorophenyl)propylamine], the IC50 [9] is listed as greater than 100 µM, the Kd [10] is listed as 2.59 µM and the “Ratio (σ2/σ1)” value [10] is listed as 0.046^c. The IC50 [11] was greater than 100 µM, the IC50 [12] was 44.8 µM and the IC50 [13] was greater than 100 µM. For the same compound, the IC50 [14] was greater than 100 µM, the IC50 [15] was greater than 100 µM and the IC50 [16] was greater than 100 µM. For the same compound, the IC50 [17] was 20.2 µM, the IC50 [18] was 86.1 µM and the IC50 [19] was 41.3 µM. The IC50 [20] was greater than 100 µM and the Kd [21] was 0.12 µM.
With `CN[C@@H](C)Cc1ccccc1` [methamphetamine] the “hypermobility” value [22] was “induced hypermobility in both WT and KO mice”.
`CCCCN(CCCC)CCCc1ccc([N+](=O)[O-])cc1` [Compound 11, N,N-Dibutyl-3-(4-nitrohenyl)propylamine] gave an IC50 [9] of 32.7 µM, an IC50 [11] greater than 100 µM and an IC50 [12] of 40.5 µM. For the same compound, the IC50 [13] was greater than 100 µM, the “Ratio (σ2/σ1)” value [2] was 1347 and the Kd [2] was 0.0003 µM. The Kd [3] was 0.404 µM, the IC50 [14] was greater than 100 µM and the IC50 [15] was greater than 100 µM. The “cytotoxicity / tumor cell growth inhibition” value [23] was “robustly inhibits growth in MB-MDA231, MCF7, Du145, and NCI-H460 cell lines in addition to SKOV-3 cells”, the IC50 [16] was greater than 100 µM and the IC50 [17] was 27.9 µM. It also gave an IC50 [18] of 57.1 µM, an IC50 [19] of 22.4 µM and an IC50 [20] greater than 100 µM.
In the case of `COC(=O)C1C(OC(=O)c2ccc(N=[N+]=[N-])c(I)c2)CC2CCC1N2C` (stereo not drawn) [[^125I]-IACoc, 3-[^125I]iodo-4-azidococaine], the Kd [24] is listed as 0.000126 µM.
